Results as given in patent publication US8193333B2, “Cancer therapy using Bcl-Xl-specific siNA” (Centre Regional de Lutte Contre le Cancer-Centre Francois …, priority 2006, dated 2012).

Assays:
[1] = system: intraperitoneal SKOV3 human ovarian adenocarcinoma; assay: Survival of nude mice bearing intraperitoneal SKOV3 tumours; assay type: in vivo, Swiss/nude mice; conditions: siRNA 25 μg/kg, cisplatin 4 μg/kg intraperitoneal, treatment repeated one month later, FIG. 15
Procedure: 4-week-old female Swiss/nude mice were obtained from CHARLES-RIVER LABORATORIES and maintained in a pathogen-free environment. The mice were fed a standard laboratory diet and tap water ad libitum and kept a 23±1° C. with a 12 h light/dark cycle. Animal experiments in the present study were performed in compliance with the guidelines of the Federation of european laboratory animal science associations.
6-8 weeks old mice were implanted intraperitoneally with 2×10^7 ovarian adenocarcinoma SKOV3 cells. As described previously, this model reflects the i.p growth pattern of advanced ovarian cancer (Louis et al, Cancer Gene Therapy, 2006, 13, 367-374).
Twenty one days after tumour implantation, mice were allocated to one of the eight treatment groups (10 mice per group) summarized in Table II: • Group 1 comprised untreated animals. • Group 2 received intraperitoneal injection of 4 μg/kg cisplatin in 1 ml 0.9% NaCl solution. • Group 3 received intraperitoneal injection of 25 μg/kg control siRNA in 1 ml 0.9% NaCl. • Group 4 received intraperitoneal injection of 25 μg/kg Bcl-XL siRNA in 1 ml 0.9% NaCl. • Group 5 received intraperitoneal injection of 25 μg/kg control siRNA in 1 ml 0.9% NaCl and the following day 4 μg/kg of cisplatin in 1 ml 0.9% NaCl solution. • Group 6 received intraperitoneal injection of 4 μg/kg of cisplatin in 1 ml 0.9% NaCl solution and the following day 25 μg/kg control siRNA in 1 ml 0.9% NaCl. • Group 7 received intraperitoneal injection of 25 μg/kg Bcl-XL siRNA in 1 ml 0.9% NaCl and the following day 4 μg/kg of cisplatin in 1 ml 0.9% NaCl solution. • Group 8 received intraperitoneal injection of 4 μg/kg of cisplatin in 1 ml 0.9% NaCl solution and the following day 25 μg/kg Bcl-XL siRNA in 1 ml 0.9% NaCl.
The same treatment was repeated one month later. Mice were killed and autopsied when considered as moribund. Organs and tumours were formalin-fixed and paraffin-embedded for histological examination. At the end of the experiment, all surviving animals were sacrificed, and histological examination was performed in order to detect residual tumour nodes.

SKOV3 cells [2] = assay: Apoptosis induction in SKOV3 cells (cell and nuclear morphology after DAPI, caspase 3 activation and PARP cleavage by Western blot); assay type: cell-based, human; conditions: 24 h, combination with 20 μg/ml cisplatin
Procedure: (§1) Exponentially growing cells were exposed to CDDP for 2 hours at 37° C., in serum free medium. After exposure to the drug, the cell layers were rinsed and incubated in complete growth medium.
(§2) The siRNA duplexes were transfected according to the recommended procedure by using the Oligofectamine Reagent and Opti-MEM medium (INVITROGEN LIFE TECHNOLOGIES). 30-40% confluent cells were transfected in 25 cm^2 flasks with different concentrations of siXL1, siRNA Mcl-1 or siRNA control and incubated at 37° C., 5% CO2 for 4 hours. Next, 20% fetal bovin serum was added to reach a final concentration of 10% foetal bovin serum in the 25 cm^2 flask.
(§3) Cells were rinsed with ice cold PBS and lysed in 150 mM NaCl, 50 mM Tris-HCl pH 8, 1% Triton X100, 4 mM PMSF, 2 mM Aprotinin, 5 mM EDTA, 10 mM NaF, 10 mM NaPPi, 1 mM Na3VO4 for 30 min on ice. Lysates were clarified by centrifugation at 10000 g for 10 min at 4° C. and protein concentrations were determined using the Bradford assay (BIO-RAD). Equal amounts of total cellular protein (20 μg) were resolved in a Bis-tris-HCL buffered (pH 6.4) 4-12% polyacrylamide gel (NuPAGE® Novex® 4-12% Bis-tris gel, INVITROGEN) for 35 min at 200V and electrophoretically transferred on a PVDF membrane (MILLIPORE) for 75 min at 30V. The membrane was blocked for 1 hour at room temperature in T-TBS (132 mM NaCl, 20 mM Tris-HCl pH 7.6, 0.05% Tween 20) supplemented with 5% non-fat dry milk. The membrane was incubated for 1 hour at room temperature in T-TBS-milk with the following primary antibodies: anti-Bcl-XL/S (1:500, S18 SANTA-CRUZ BIOTECHNOLOGY), anti-PARP (1:1000, CELL-SIGNALING TECHNOLOGY), anti-caspase-3 (1:1000, BD BIOSCIENCES PHARMINGEN) anti-cleaved caspase-3 (1:1000, CELL-SIGNALING TECHNOLOGY), anti-alpha-tubulin (1:3000, SIGMA) and anti-Mcl-1 (1:750, S19 SANTA-CRUZ BIOTECHNOLOGY). After three washes with T-TBS, the membrane was incubated for 1 h at room temperature in T-TBS-milk with the adequate peroxidase conjugated secondary antibody (Anti-rabbit IgG, CELL-SIGNALING TECHNOLOGY, and anti-mouse IgG, AMERSHAM). After 3 washes with T-TBS and one with TBS, the immunoreactivity was detected by enhanced chemiluminescence (ECL kit, AMERSHAM).
(§4) After treatment, detached cells were collected separately and adherent cells were dissociated by trypsin/EDTA. Adherent and detached cells were then pooled and centrifuged at 1500×g for 5 min before being fixed in 70% ethanol. The cells were then collected on a polylysine-coated glass slide by cytocentrifugation, before a 30 min room temperature incubation in a 1 μg/ml DAPI aqueous solution (BOEHRINGER MANNHEIM). Slides were thereafter extensively washed in distilled water and mounted in Mowiol (CALBIO-CHEM).

Bcl-XL protein = assay: Western blot of Bcl-XL protein expression in tumour cell lines after siRNA transfection; assay type: cell-based, human; conditions: SKOV3 cells
Procedure: SKOV3, OAW42, OAW42-R10, IGROV1 and IGROV1-R10 human ovarian adenocarcinoma cell lines, GL15 glioblastoma cell line, and NCI-H28 mesothelioma cell line were obtained from ECACC or ATCC. OAW42, OAW42-R10 cells were grown in DMEM (GIBCO-BRL) supplemented with 10% foetal calf serum (GIBCO-BRL), 2 mM Glutamax™ (GIBCO-BRL), 1 mM sodium pyruvate (GIBCO-BRL), 20 UI/L human recombinant insulin (LILLY), 33 mM sodium bicarbonate and 20 mM HEPES All the other cell lines were grown in RPMI 1640 medium (GIBCO-BRL) supplemented with 10% foetal calf serum (GIBCO-BRL), 2 mM Glutamax™ (GIBCO-BRL), 33 mM sodium bicarbonate and 20 mM HEPES. Cells were maintained at 37° C. in a 5% CO2 humidified atmosphere, and split twice a week by trypsinization.
as §1, §2, §3

SKOV3 cells [3] = assay: Cell mortality, viability, growth and cell cycle of SKOV3 cells (morphology, trypan blue exclusion, FACS of DNA content); assay type: cell-based, human; conditions: for cell death (morphology, FACS analysis of the cell cycle): cisplatin 5 or 20 μg/ml, siRNA 150 nM; for cellular and nuclear morphologies and cell cycle versus untransfected SKOV3 cells: alone 150 nM or in combination 75 nM each, 72 h after transfection, FIG. 13
Procedure: as §1, §2, §4
After treatment, detached cells were collected separately. Adherent cells were then harvested by trypsin/EDTA dissociation. Adherent and detached cells were then pooled and washed in PBS before being fixed in 70% ethanol and stored at −20° C. until analysis. Before flow cytometry analysis, the cells were washed in PBS and incubated for 30 min at room temperature in PBS in order to allow the release of low molecular weight (m.w.) DNA, characteristic of apoptotic cells. After a centrifugation at 4000 g for 10 min, the cell pellets were resuspended and stained with propidium iodide (PI) using the DNA Prep Coulter Reagent Kit (BECKMAN-COULTER) at a final concentration of 10^6 cells/ml.
Samples were analyzed using an EPICS XL flow cytometer (BECKMAN COULTER) equipped with an argon laser at 15 mW. PI-stained cells were analyzed using a 488 mn excitation. A 620 nm band pass filter was put on the red fluorescence of PI. Computerized gating was applied on the side and forward scatter to exclude very small debris and on pulse width and integral peak of red fluorescence to eliminate aggregates. All samples were analyzed at a flow rate lower than 100 events per second and with a sheath pressure of 30 psi.

Mcl-1 mRNA = assay: RT-PCR of Mcl-1 mRNA in SKOV3 cells; assay type: cell-based, human; conditions: 72 h after transfection, FIG. 11A
Procedure: as §2

Mcl-1 protein = assay: Western blot of Mcl-1 protein expression in SKOV3 cells; assay type: cell-based, human; conditions: FIG. 11B
Procedure: as §2
Cells were rinsed with ice cold PBS and lysed in 150 mM NaCl, 50 mM Tris-HCl pH 8, 1% Triton X100, 4 mM PMSF, 2 mM Aprotinin, 5 mM EDTA, 10 mM NaF, 10 mM NaPPi, 1 mM Na3VO4 for 30 min on ice. Lysates were clarified by centrifugation at 10000 g for 10 min at 4° C. and protein concentrations were determined using the Bradford assay (BIO-RAD). Equal amounts of total cellular protein (20 μg) were resolved in a Bis-tris-HCL buffered (pH 6.4) 4-12% polyacrylamide gel (NuPAGE® Novex® 4-12% Bis-tris gel, INVITROGEN) for 35 min at 200V and electrophoretically transferred on a PVDF membrane (MILLIPORE) for 75 min at 30V. The membrane was blocked for 1 hour at room temperature in T-TBS (132 mM NaCl, 20 mM Tris-HCl pH 7.6, 0.05% Tween 20) supplemented with 5% non-fat dry milk. […] After 3 washes with T-TBS and one with TBS, the immunoreactivity was detected by enhanced chemiluminescence (ECL kit, AMERSHAM).

| Compound | effect on mice survival [1] | caspase 3 activation and PARP cleavage after 24 h exposure to cisplatin (SKOV3 cells [2]) | Bcl-XL protein expression 24 hours after exposure to cisplatin (Bcl-XL protein; 72 hours after siRNA transfection, cisplatin 5 and 20 μg/ml, FIG. 9) | cell mortality / cell cycle after several days (SKOV3 cells [3]; SKOV3 cells, cisplatin 5 and 20 μg/ml) | cell death (morphology, FACS analysis of the cell cycle) (SKOV3 cells [3]; SKOV3 cells) | effect of various concentrations on Bcl-XL protein expression (Bcl-XL protein; 72 h after transfection, FIG. 3) | cellular and nuclear morphologies and cell cycle versus untransfected SKOV3 cells (SKOV3 cells [3]) | Mcl-1 mRNA expression (RT-PCR) (Mcl-1 mRNA) | Mcl-1 protein expression after 72 hours (Mcl-1 protein) | cytotoxic effect on SKOV3 cells (SKOV3 cells [3]; 50 nM each siRNA, absence of cisplatin, FIG. 12) | cytotoxic effect of each siRNA (SKOV3 cells [3]; SKOV3 cells, FIGS. 13 and 14) |
| --- | --- | --- | --- | --- | --- | --- | --- | --- | --- | --- | --- |
| N.N.[Cl][Pt][Cl] [cisplatin, cis-diamino-dichloro-platinum II, reference compound] | does not improve survival | no sign of apoptosis | no effect | only a transient arrest in cell cycle progression | low level or no cell death |  |  |  |  |  |  |
| control siRNA: control siRNA without homology to relevant human genes; sense SEQ ID NO: 9, anti-sense SEQ ID NO: 10 (sense GACGUGGGACUGAAGGGGUTT; antisense ACCCCUUCAGUCCCACGUCTT; chemistry not given here) [reference compound] | does not increase the mice survival |  |  |  | no changes | No effect | no difference |  |  |  |  |
| siMcl-1: Mcl-1 specific siRNA; sense 5′-gugccuuuguggcuaaacatt-3′ (SEQ ID NO: 7), anti-sense 5′-uguuuagccacaaaggcacct-3′ (SEQ ID NO: 8) (sense GUGCCUUUGUGGCUAAACATT; antisense UGUUUAGCCACAAAGGCACCT; chemistry not given here) |  |  |  |  |  |  | no difference | almost completely | disappeared totally | no cytotoxic effect | slight cytoxic effect |
